In US4843087A (priority 1986, dated 1989) one finds MIC, MIC50 and IC (MIC80 of serotype panel) data, which are given here for 32 compounds.

The test system of assay [1] is Polio 2. The assay can be described thus: microbe, parasite or virus in culture. The class given is cell-based, poliovirus. As to conditions: Enterovirus C, HeLa, read-out: Polio 2 MIC.
Assay [2] relates to human rhinovirus (HRV) serotypes. The assay can be described thus: microbe, parasite or virus in culture. As to conditions: for MIC50: read-out: Rhinovirus MIC50; for IC (MIC80 of serotype panel): read-out: Rhinovirus MIC80. The format is cell-based.

Values after ≈ are worked out from the molar mass of the structure shown.

With `Cc1cc(CCCOCOCCOc2ccc(C3=NCCO3)cc2Cl)on1` [Example 82, 5-{3-[[2-[2-Chloro-4-(4,5-dihydro-2-oxazolyl)phenoxy]ethoxy]methoxy]propyl}-3-methylisoxazole], the MIC in assay [1] stood at 2.9 µg/mL (≈ 7.34 µM). In assay [2], the MIC50 came to 1.2 µg/mL (≈ 3.04 µM) and the IC (MIC80 of serotype panel) is 5.4 µg/mL.

Regarding `Cc1cc(CCCOCOCCOc2ccc(C3=NCCO3)cc2C)on1` [Example 83, 5-{3-[[2-[4-(4,5-Dihydro-2-oxazolyl)-2-methylphenoxy]ethoxy]methoxy]propyl}-3-methylisoxazole], the MIC in assay [1] came out at 5 µg/mL (≈ 13.4 µM). Besides, in assay [2], the MIC50 is 3.75 µg/mL (≈ 10 µM) and the IC (MIC80 of serotype panel) is 99 µg/mL.

Take `Cc1cc(CCCCCOc2ccc(C3=NCCO3)cc2C(F)F)on1` [Example 84, 5-{5-[2-Difluoromethyl-4-(4,5-dihydro-2-oxazolyl)phenoxy]pentyl}-3-methylisoxazole]: the MIC in assay [1] worked out at 0.11 µg/mL (≈ 0.302 µM). In assay [2], the MIC50 was 0.082 µg/mL (≈ 0.225 µM) and the IC (MIC80 of serotype panel) was 0.72 µg/mL.

With `Cc1cc(CCCCCOc2ccc(C3=NCCO3)cc2C(=O)O)on1` [Example 86, 5-{5-[2-Carboxy-4-(4,5-dihydro-2-oxazolyl)phenoxy]pentyl}-3-methylisoxazole], the MIC in assay [1] was determined as 2.6 µg/mL (≈ 7.25 µM). Besides, in assay [2], the MIC50 turned out to be 99 µg/mL (≈ 276 µM) and the IC (MIC80 of serotype panel) stood at 99 µg/mL.

As to `Cc1cc(CCCCCOc2ccc(-c3ncco3)cc2)on1` [Example 88, 3-Methyl-5-{5-[4-(2-oxazolyl)phenoxy]pentyl}isoxazole], in assay [1], the MIC turned out to be 0.025 µg/mL (≈ 0.08 µM). Besides, in assay [2], the MIC50 turned out to be 0.38 µg/mL (≈ 1.22 µM) and the IC (MIC80 of serotype panel) came to 25.2 µg/mL.

For the compound `Cc1cc(CCCCCOc2ccc(-c3nc(C)c(C)o3)cc2C)on1` [Example 90, 5-{5-[4-(4,5-Dimethyl-2-oxazolyl)-2-methylphenoxy]pentyl}-3-methylisoxazole], the MIC in assay [1] was determined as 1.5 µg/mL (≈ 4.23 µM). In assay [2], the MIC50 amounted to 0.2 µg/mL (≈ 0.564 µM) and the IC (MIC80 of serotype panel) is 0.49 µg/mL.

Turning to `Cc1cc(CCCCCOc2ccc(-c3ncco3)cc2Br)on1` [Example 92, 5-{5-[2-Bromo-4-(2-oxazolyl)phenoxy]pentyl}-3-methylisoxazole], the MIC in assay [1] turned out to be 0.07 µg/mL (≈ 0.179 µM). Also, in assay [2], the MIC50 stood at 0.07 µg/mL (≈ 0.179 µM) and the IC (MIC80 of serotype panel) was found to be 0.61 µg/mL.

For the compound `Cc1cc(CCCCCOc2ccc(C3=NCCCO3)cc2)on1` [Example 95, 5,6-Dihydro-2-{4-[5-(3-methyl-5-isoxazolyl)pentyloxy]phenyl}-4H-1,3-oxazine], the MIC in assay [1] came to 0.15 µg/mL (≈ 0.457 µM). For the same compound, in assay [2], the MIC50 turned out to be 1.65 µg/mL (≈ 5.02 µM) and the IC (MIC80 of serotype panel) is 26.3 µg/mL.

Consider `Cc1cc(CCCCCOc2ccc(-c3cnco3)cc2)on1` [Example 96(b), 3-Methyl-5-{5[4-(5-oxazolyl)phenoxy]pentyl}isoxazole], for which the MIC in assay [1] came to 0.095 µg/mL (≈ 0.304 µM). In assay [2], the MIC50 stood at 1.4 µg/mL (≈ 4.48 µM) and the IC (MIC80 of serotype panel) was 2.5 µg/mL.

As to `Cc1cc(CCCCCOc2c(Cl)cc(-c3cnco3)cc2Cl)on1` [Example 98, 5-{5-[2,6-Dichloro-4-(5-oxazolyl)phenoxy]pentyl}-3-methylisoxazole], the MIC in assay [1] amounted to 12.5 µg/mL (≈ 32.8 µM). Further, in assay [2], the MIC50 is 0.21 µg/mL (≈ 0.551 µM) and the IC (MIC80 of serotype panel) is 2.8 µg/mL.

With `Cc1cc(COCCCCCOc2ccc(C3=NCCO3)cc2)on1` [Example 99, 5-{[[5-[4-(4,5-Dihydro-2-oxazolyl)phenoxy]pentyl]oxy]methyl}-3-methylisoxazole], the MIC in assay [1] is 0.27 µg/mL (≈ 0.784 µM). Further, in assay [2], the MIC50 worked out at 1.3 µg/mL (≈ 3.77 µM) and the IC (MIC80 of serotype panel) came to 2.3 µg/mL.

For `Cc1cc(CCCCCOc2ccc(C3=NCCO3)cc2N(C)C)on1` [Example 100, 5-{5-[4-(4,5-Dihydro-2-oxazolyl)-2-(dimethylamino)phenoxy]pentyl}-3-methylisoxazole], the MIC in assay [1] amounted to 6.2 µg/mL (≈ 17.3 µM). Moreover, in assay [2], the MIC50 is 0.76 µg/mL (≈ 2.13 µM) and the IC (MIC80 of serotype panel) came out at 99 µg/mL.

`CCC(=O)Nc1cc(C2=NCCO2)ccc1OCCCCCc1cc(C)no1` [Example 102, 5-{5-[4-(4,5-Dihydro-2-oxazolyl)-2-(propionylamino)phenoxy]pentyl}-3-methylisoxazole]: the MIC in assay [1] stood at 12.5 µg/mL (≈ 32.4 µM). For the same compound, in assay [2], the MIC50 is 12.5 µg/mL (≈ 32.4 µM) and the IC (MIC80 of serotype panel) is 99 µg/mL.

For `Cc1cc(CCCCC[S+]([O-])c2ccc(C3=NCCO3)cc2)on1` (stereo not drawn) [Example 104, 5-{5-[[4-(4,5-Dihydro-2-oxazolyl)phenyl]sulfinyl]pentyl}-3-methylisoxazole], in assay [1], the MIC is 12.5 µg/mL (≈ 36.1 µM). In addition, in assay [2], the MIC50 was 9.85 µg/mL (≈ 28.4 µM) and the IC (MIC80 of serotype panel) came to 12.5 µg/mL.

For the compound `Cc1cc(CCCCCOc2c(Cl)cc(C3=NCC(C)O3)cc2Cl)on1` (stereo not drawn) [Example 108, 5-{5-[2,6-Dichloro-4-(4,5-dihydro-5-methyl-2-oxazolyl)phenoxy]pentyl}-3-methylisoxazole], the MIC in assay [1] stood at 2.6 µg/mL (≈ 6.54 µM). For the same compound, in assay [2], the MIC50 was found to be 0.13 µg/mL (≈ 0.327 µM) and the IC (MIC80 of serotype panel) was 0.34 µg/mL.

`Cc1cc(CC/C=C/COc2c(Cl)cc(C3=NCCO3)cc2Cl)on1` [Example 113, 5-{5-[2,6-Dichloro-4-(4,5-dihydro-2-oxazolyl)phenoxy]-3-pentenyl}-3-methylisoxazole (E-isomer)]: in assay [1], the MIC was determined as 0.4 µg/mL (≈ 1.05 µM). For the same compound, in assay [2], the MIC50 came out at 0.09 µg/mL (≈ 0.236 µM) and the IC (MIC80 of serotype panel) came out at 0.167 µg/mL.

Turning to `Cc1cc(CCCCCCCOc2c(Cl)cc(C3=NCCO3)cc2Cl)on1` [Example 114, 5-{7-[2,6-Dichloro-4-(4,5-dihydro-2-oxazolyl)phenoxy]heptyl}-3-methylisoxazole], the MIC in assay [1] stood at 0.48 µg/mL (≈ 1.17 µM). Also, in assay [2], the MIC50 was 0.22 µg/mL (≈ 0.535 µM) and the IC (MIC80 of serotype panel) worked out at 0.62 µg/mL.

On to `Cc1cc(CCCOc2c(Cl)cc(C3=NCCO3)cc2Cl)on1` [Example 115, 5-{3-[2,6-Dichloro-4-(4,5-dihydro-2-oxazolyl)phenoxy]propyl}-3-methylisoxazole], for which, in assay [1], the MIC worked out at 3.1 µg/mL (≈ 8.73 µM). Further, in assay [2], the MIC50 worked out at 0.04 µg/mL (≈ 0.113 µM) and the IC (MIC80 of serotype panel) is 0.58 µg/mL.

On to `OCc1cc(CCCCCOc2c(Cl)cc(C3=NCCO3)cc2Cl)on1` [Example 116, 5-{5-[2,6-Dichloro-4-(4,5-dihydro-2-oxazolyl)phenoxy]pentyl}-3-isoxazolemethanol], for which the MIC in assay [1] was determined as 3.1 µg/mL (≈ 7.76 µM). In assay [2], the MIC50 is 0.13 µg/mL (≈ 0.326 µM) and the IC (MIC80 of serotype panel) turned out to be 0.5 µg/mL.

With `COCc1cc(CCCCCOc2c(Cl)cc(C3=NCCO3)cc2Cl)on1` [Example 117, 5-{5-[2,6-Dichloro-4-(4,5-dihydro-2-oxazolyl)phenoxy]pentyl}-3-(methoxymethyl)isoxazole], the MIC in assay [1] turned out to be 0.39 µg/mL (≈ 0.944 µM). In assay [2], the MIC50 was 0.09 µg/mL (≈ 0.218 µM) and the IC (MIC80 of serotype panel) was determined as 0.31 µg/mL.

`Cc1cc(CCCCCOc2ccc(-c3nc(C)co3)cc2)on1` [Example 133, 5-{5-[4-(4-Methyl-2-oxazolyl)phenoxy]pentyl}-3-methylisoxazole]: the MIC in assay [1] was 0.09 µg/mL (≈ 0.276 µM). For the same compound, in assay [2], the MIC50 is 0.16 µg/mL (≈ 0.49 µM) and the IC (MIC80 of serotype panel) came to 0.68 µg/mL.

As to `Cc1cc(CCCCCOc2ccc(-c3nc(C)c(C)o3)cc2Cl)on1` [Example 134, 5-{5-[2-Chloro-4-(4,5-dimethyl-2-oxazolyl)phenoxy]pentyl}-3-methylisoxazole], the MIC in assay [1] was found to be 1.9 µg/mL (≈ 5.07 µM). Further, in assay [2], the MIC50 was 0.29 µg/mL (≈ 0.774 µM) and the IC (MIC80 of serotype panel) turned out to be 0.5 µg/mL.

Consider `Cc1cc(CCCCCCCOc2ccc(-c3nc(C)co3)cc2)on1` [Example 135, 5-{7-[4-(4-Methyl-2-oxazolyl)phenoxy]heptyl}-3-methylisoxazole], for which, in assay [1], the MIC was determined as 2.6 µg/mL (≈ 7.34 µM). In assay [2], the MIC50 amounted to 0.335 µg/mL (≈ 0.945 µM) and the IC (MIC80 of serotype panel) was 0.6 µg/mL.

For the compound `CN(C)Cc1cc(CCCCCCCOc2ccc(C3=NCCO3)cc2)on1` [Example 136(b), 5-{7-[4-(4,5-Dihydro-2-oxazolyl)phenoxy]heptyl}-3-(dimethylaminomethyl)isoxazole], the MIC in assay [1] came out at 0.62 µg/mL (≈ 1.61 µM). In addition, in assay [2], the MIC50 worked out at 0.88 µg/mL (≈ 2.28 µM) and the IC (MIC80 of serotype panel) is 1.47 µg/mL.

For the compound `CCN(CC)Cc1cc(CCCCCCCOc2ccc(C3=NCCO3)cc2)on1` [Example 137, 5-{7-[4-(4,5-Dihydro-2-oxazolyl)phenoxy]heptyl}-3-(diethylaminomethyl)isoxazole], the MIC in assay [1] amounted to 2 µg/mL (≈ 4.84 µM). In addition, in assay [2], the MIC50 turned out to be 3.25 µg/mL (≈ 7.87 µM) and the IC (MIC80 of serotype panel) came to 6.2 µg/mL.

As for `C=Cc1cc(C2=NCCO2)ccc1OCCCCCc1cc(C)no1` [Example 141, 5-{5-[2-Ethenyl-4-(4,5-dihydro-2-oxazolyl)phenoxy]pentyl}-3-methylisoxazole], in assay [1], the MIC was 0.23 µg/mL (≈ 0.676 µM). Moreover, in assay [2], the MIC50 was 0.25 µg/mL (≈ 0.734 µM) and the IC (MIC80 of serotype panel) is 0.54 µg/mL.

Consider `Cc1cc(CCCCCCc2ccc(C3=NCCO3)cc2)on1` [Example 142], for which the MIC in assay [1] came to 0.37 µg/mL (≈ 1.18 µM). For the same compound, in assay [2], the MIC50 was 0.26 µg/mL (≈ 0.832 µM) and the IC (MIC80 of serotype panel) turned out to be 6.2 µg/mL.

As to `Cc1cc(CCCCCOc2c(C)cc(-c3cocn3)cc2C)on1` [Example 144, 5-{5-[2,6-Dimethyl-4-(4-oxazolyl)phenoxy]pentyl}-3-methylisoxazole], the MIC in assay [1] amounted to 12.5 µg/mL (≈ 36.7 µM). Besides, in assay [2], the MIC50 was found to be 0.14 µg/mL (≈ 0.411 µM) and the IC (MIC80 of serotype panel) was determined as 1.1 µg/mL.

As to `Cc1cc(CCCCCOc2ccc(-c3ncc(Cl)o3)cc2)on1` [Example 145, 5-{5-[4-(5-Chloro-2-oxazolyl)phenoxy]pentyl}-3-methylisoxazole], in assay [1], the MIC is 0.033 µg/mL (≈ 0.0952 µM). Besides, in assay [2], the MIC50 came out at 0.2 µg/mL (≈ 0.577 µM) and the IC (MIC80 of serotype panel) is 0.29 µg/mL.

For the compound `CCOC(=O)c1cc(C2=NCCO2)ccc1OCCCCCc1cc(C)no1` [Example 146, 5-{5-[2-Ethoxycarbonyl-4-(4,5-dihydro-2-oxazolyl)phenoxy]pentyl}-3-methylisoxazole], in assay [1], the MIC was 4.2 µg/mL (≈ 10.9 µM). In assay [2], the MIC50 came to 0.29 µg/mL (≈ 0.75 µM) and the IC (MIC80 of serotype panel) is 0.55 µg/mL.

Take `Cc1cc(CCCCCOc2ccc(C3=NCCO3)cc2C=CBr)on1` [Example 147, 5-{5-[2-(2-Bromoethenyl)-4-(4,5-dihydro-2-oxazolyl)phenoxy]pentyl}-3-methylisoxazole]: the MIC in assay [1] turned out to be 0.4 µg/mL (≈ 0.954 µM). Also, in assay [2], the MIC50 was 0.23 µg/mL (≈ 0.549 µM) and the IC (MIC80 of serotype panel) is 0.76 µg/mL.

For the compound `COC(=O)CCC(=O)OCc1cc(CCCCCOc2c(Cl)cc(C3=NCCO3)cc2Cl)on1` [Example 148, 5-{5-[2,6-Dichloro-4-(4,5-dihydro-2-oxazolyl)phenoxy]pentyl}-3-isoxazolylmethyl methyl butanedioate], the MIC in assay [1] worked out at 8.5 µg/mL (≈ 16.6 µM). Besides, in assay [2], the MIC50 turned out to be 0.17 µg/mL (≈ 0.331 µM) and the IC (MIC80 of serotype panel) stood at 0.45 µg/mL.
